Active and inactive are the calls of the source.
Experiments:
Coagulation factor XII = target: T1, Coagulation factor XII (Homo sapiens, UniProt P00748); assay type: functional;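 further: activated factor XIIa alpha cleaving a fluorogenic AMC peptide substrate; inhibitor potency from loss of enzyme activity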
T1 sequence (P00748 whole entry): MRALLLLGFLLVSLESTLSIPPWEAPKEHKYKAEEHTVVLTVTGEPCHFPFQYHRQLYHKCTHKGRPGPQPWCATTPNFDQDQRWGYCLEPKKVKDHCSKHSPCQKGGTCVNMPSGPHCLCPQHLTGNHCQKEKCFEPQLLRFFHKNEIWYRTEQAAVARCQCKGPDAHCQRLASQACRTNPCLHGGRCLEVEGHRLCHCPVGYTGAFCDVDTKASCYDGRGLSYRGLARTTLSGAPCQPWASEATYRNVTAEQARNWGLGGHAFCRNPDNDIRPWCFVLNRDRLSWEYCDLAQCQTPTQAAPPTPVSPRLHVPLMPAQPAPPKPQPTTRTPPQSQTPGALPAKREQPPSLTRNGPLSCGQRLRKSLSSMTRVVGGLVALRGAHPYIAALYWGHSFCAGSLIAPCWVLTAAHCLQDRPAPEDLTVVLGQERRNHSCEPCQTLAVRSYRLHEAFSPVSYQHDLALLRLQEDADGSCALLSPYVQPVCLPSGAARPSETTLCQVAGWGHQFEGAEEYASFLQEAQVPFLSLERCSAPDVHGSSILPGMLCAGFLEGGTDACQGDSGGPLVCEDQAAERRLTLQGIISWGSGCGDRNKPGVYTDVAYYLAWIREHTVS

[1] = target: T2, Short transient receptor potential channel 4 (Mus musculus, UniProt Q9QUQ5); experiment: mouse TRPC4 channel inhibitors, dose response, cell-based, HEK293 TRPC4/mu-opioid, Fluo-4 calcium (AID 434942); assay type: functional;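 further: potency of inhibitors blocking the TRPC4 calcium response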
T2 sequence (Q9QUQ5 whole entry): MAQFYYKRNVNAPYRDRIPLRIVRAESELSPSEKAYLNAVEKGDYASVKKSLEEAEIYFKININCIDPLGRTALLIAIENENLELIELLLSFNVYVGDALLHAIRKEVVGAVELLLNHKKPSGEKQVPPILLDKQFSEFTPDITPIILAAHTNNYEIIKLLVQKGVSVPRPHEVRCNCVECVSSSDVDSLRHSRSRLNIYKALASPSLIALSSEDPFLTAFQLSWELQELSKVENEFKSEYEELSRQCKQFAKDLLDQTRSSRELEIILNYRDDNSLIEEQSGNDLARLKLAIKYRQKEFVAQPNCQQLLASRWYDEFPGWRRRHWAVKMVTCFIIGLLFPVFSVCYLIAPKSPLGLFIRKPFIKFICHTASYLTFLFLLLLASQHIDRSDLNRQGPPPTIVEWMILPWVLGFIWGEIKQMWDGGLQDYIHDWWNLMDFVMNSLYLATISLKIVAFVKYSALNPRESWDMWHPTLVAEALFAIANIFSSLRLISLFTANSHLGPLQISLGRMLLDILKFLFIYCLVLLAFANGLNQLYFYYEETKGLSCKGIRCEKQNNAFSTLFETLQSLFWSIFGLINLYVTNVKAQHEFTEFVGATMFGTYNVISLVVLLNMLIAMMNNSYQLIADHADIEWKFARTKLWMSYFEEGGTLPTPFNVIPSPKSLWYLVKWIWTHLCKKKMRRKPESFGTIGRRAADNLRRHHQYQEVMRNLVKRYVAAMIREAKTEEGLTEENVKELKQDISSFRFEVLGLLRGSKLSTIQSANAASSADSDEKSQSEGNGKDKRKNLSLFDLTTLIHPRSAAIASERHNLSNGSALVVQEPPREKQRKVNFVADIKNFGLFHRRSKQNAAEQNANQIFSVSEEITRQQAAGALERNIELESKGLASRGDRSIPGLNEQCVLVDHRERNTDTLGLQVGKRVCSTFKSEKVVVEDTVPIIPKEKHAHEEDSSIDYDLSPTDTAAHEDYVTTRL

[2] = target: Dual specificity tyrosine-phosphorylation-regulated kinase 1A (Rattus norvegicus, UniProt Q63470); assay type: biochemical, Homo sapiens
Large T antigen = Large T antigen (Simian virus 40, UniProt P03070); assay type: functional, Betapolyomavirus macacae;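 further: Confirmatory-stage PubChem screen for compounds that inhibit SV40 T antigen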
[3] = target: Peroxisome proliferator-activated receptor gamma/Nuclear receptor coactivator 2 (Homo sapiens, UniProt P37231); experiment: TR-FRET dose response biochemical High Throughput Screening assay for agonists of the steroid receptor coactivator 2 (SRC-2) recruitment by the peroxisome proliferator-activated receptor gamma (PPAR gamma): non-selective agonists. [Related pubchem assays: 1297, 1032 ]; assay type: functional
[4] = target: Peroxisome proliferator-activated receptor gamma/Nuclear receptor coactivator 3 (Homo sapiens, UniProt P37231); experiment: TR-FRET dose response biochemical High Throughput Screening assay for agonists of the steroid receptor coactivator 3 (SRC-3) recruitment by the peroxisome proliferator-activated receptor gamma (PPAR gamma): non-selective agonists. [Related pubchem assays: 1301 (Confirmation screen.), 1048 (Primary screen.)]; assay type: functional
[5] = target: Peroxisome proliferator-activated receptor gamma/Nuclear receptor coactivator 1 (Homo sapiens, UniProt P37231); experiment: TR-FRET dose response biochemical High Throughput Screening assay for agonists of the steroid receptor coactivator 1 (SRC-1) recruitment by the peroxisome proliferator-activated receptor gamma (PPAR gamma): non-selective agonists. [Related pubchem assays (depositor defined):AID1300, AID1808, AID504735, AID631]; assay type: protein assay
[6] = cytotoxicity in HMLE control line with eGFP shRNA, dose response, counter-screen for HMLE_sh_ECad selective toxicity project, cell-based, HMLE_sh_eGFP, luminescence (AID 463074); assay type: functional, Homo sapiens;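 further: HMLE human mammary epithelial cells expressing control shRNA against eGFP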
[7] = Luminescence Cell-Based Dose Retest to Confirm Inhibitors of Cancer Stem Cells. [Related pubchem assays (depositor defined):AID2717, AID2721]; assay type: functional; conditions: Homo sapiens
[8] = target: T3, Lysosomal acid glucosylceramidase (Homo sapiens, UniProt P04062); experiment: Dose response cell-based high throughput screening assay to identify enhancers of beta-glucosidase activity. [Related pubchem assays: 784 ]; assay type: functional
T3 sequence (P04062 whole entry): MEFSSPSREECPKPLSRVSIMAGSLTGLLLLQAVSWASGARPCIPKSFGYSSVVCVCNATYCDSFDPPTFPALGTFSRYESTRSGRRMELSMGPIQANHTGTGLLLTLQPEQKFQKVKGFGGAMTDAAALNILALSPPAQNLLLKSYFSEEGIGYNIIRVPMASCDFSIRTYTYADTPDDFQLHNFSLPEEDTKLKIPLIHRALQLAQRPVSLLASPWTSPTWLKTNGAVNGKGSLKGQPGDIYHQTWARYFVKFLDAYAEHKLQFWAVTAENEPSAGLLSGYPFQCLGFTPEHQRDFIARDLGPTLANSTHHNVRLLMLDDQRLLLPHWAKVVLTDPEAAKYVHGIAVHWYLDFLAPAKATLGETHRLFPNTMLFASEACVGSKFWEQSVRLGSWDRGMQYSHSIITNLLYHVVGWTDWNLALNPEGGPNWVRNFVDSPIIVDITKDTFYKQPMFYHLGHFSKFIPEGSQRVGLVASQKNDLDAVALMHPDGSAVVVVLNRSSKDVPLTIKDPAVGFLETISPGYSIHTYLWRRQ

HEK293 [9] = experiment: NOD1 signaling inhibitors, primary screen, cell-based, luminescence, uHTS (AID 1578); assay type: functional; conditions: Homo sapiens
HEK293 [10] = experiment: cells; assay type: functional, cell-based; conditions: Homo sapiens
HEK293 [11] = experiment: NOD2 signaling inhibitors in MDP-stimulated cells, cell-based, uHTS, luminescence (AID 2001); assay type: functional; conditions: Homo sapiens
HEK293 [12] = experiment: cells; assay type: functional, cell-based; conditions: Homo sapiens; remark: listed apart in the source
BJ [13] = experiment: cytotoxicity toward BJ-TERT fibroblasts, dose response, cell-based, RAS-independent, luminescence (AID 1933); assay type: functional; conditions: Homo sapiens
INS1 = experiment: beta cell apoptosis inhibitors, cytokine rescue, dose response, luminescence, retest (AID 449756); assay type: functional, cell-based; conditions: Rattus norvegicus;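 further: cell death triggered by IL-1 beta plus TNF-alpha plus IFN-gamma mixture; protective hits raise ATP signal compared with cytokine alone wells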
BJ [14] = experiment: cytotoxicity toward BJ-TERT-LT-ST fibroblasts, dose response, cell-based, RAS-independent, luminescence (AID 1935); assay type: functional; conditions: Homo sapiens;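 further: BJ fibroblasts immortalized with TERT plus LT and ST oncogenes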
BJ [15] = experiment: cytotoxicity toward Ras-transformed BJeLR fibroblasts, dose response, cell-based, alamar blue fluorescence, cherrypicked samples (AID 2631); assay type: functional; conditions: Homo sapiens;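 further: confirmatory dose-response assay in RAS-dependent BJ fibroblasts engineered with TERT, LT and ST, with cytotoxicity read by fluorescence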
BJ [16] = experiment: cells; assay type: functional, cell-based; conditions: Homo sapiens
[17] = cytotoxicity toward DRD oncogenic fibroblasts, dose response, cell-based, non-viral oncogenic, luminescence (AID 1934); assay type: functional; conditions: Homo sapiens
Streptococcus = experiment: Group A Streptococcus viability loss, dose response, counter-screen for streptokinase expression inhibitor project, luminescence, BacTiterGlo (AID 1915); assay type: functional, organism-based;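 further: potency for reduction of bacterial viability or growth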
[18] = system: Streptococcus sp. 'group A'; experiment: growth inhibition of control SK(-) GAS strain, dose response, counter-screen for streptokinase expression inhibitor project, luminescence, kanamycin, BacTiterGlo, confirmation (AID 1900); assay type: functional, organism-based
Streptokinase A = target: T4, Streptokinase A (Streptococcus pyogenes serotype M1, UniProt P10520); experiment: S. pyogenes streptokinase expression inhibitors, potency, dose response, plasminogen activation absorbance, OD405 (AID 1914); assay type: functional, Streptococcus pyogenes M1 GAS;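 further: secreted streptokinase activity via plasminogen activation per viability signal from cell pellet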
T4 sequence (P10520 whole entry): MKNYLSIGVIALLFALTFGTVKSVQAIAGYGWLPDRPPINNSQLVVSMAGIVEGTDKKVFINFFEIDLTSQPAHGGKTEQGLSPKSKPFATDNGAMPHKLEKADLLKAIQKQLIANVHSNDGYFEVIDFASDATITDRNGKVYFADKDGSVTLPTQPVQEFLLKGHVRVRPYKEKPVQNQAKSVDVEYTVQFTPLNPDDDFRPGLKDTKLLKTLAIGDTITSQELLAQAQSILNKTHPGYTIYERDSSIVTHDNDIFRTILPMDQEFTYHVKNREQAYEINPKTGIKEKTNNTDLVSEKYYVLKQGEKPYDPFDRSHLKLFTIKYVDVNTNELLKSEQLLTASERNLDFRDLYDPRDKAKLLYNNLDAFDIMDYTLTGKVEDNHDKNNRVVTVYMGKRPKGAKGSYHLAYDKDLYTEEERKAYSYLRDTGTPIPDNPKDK

Sequence of Peroxisome proliferator-activated receptor gamma/Nuclear receptor coactivator 1 (P37231 whole entry): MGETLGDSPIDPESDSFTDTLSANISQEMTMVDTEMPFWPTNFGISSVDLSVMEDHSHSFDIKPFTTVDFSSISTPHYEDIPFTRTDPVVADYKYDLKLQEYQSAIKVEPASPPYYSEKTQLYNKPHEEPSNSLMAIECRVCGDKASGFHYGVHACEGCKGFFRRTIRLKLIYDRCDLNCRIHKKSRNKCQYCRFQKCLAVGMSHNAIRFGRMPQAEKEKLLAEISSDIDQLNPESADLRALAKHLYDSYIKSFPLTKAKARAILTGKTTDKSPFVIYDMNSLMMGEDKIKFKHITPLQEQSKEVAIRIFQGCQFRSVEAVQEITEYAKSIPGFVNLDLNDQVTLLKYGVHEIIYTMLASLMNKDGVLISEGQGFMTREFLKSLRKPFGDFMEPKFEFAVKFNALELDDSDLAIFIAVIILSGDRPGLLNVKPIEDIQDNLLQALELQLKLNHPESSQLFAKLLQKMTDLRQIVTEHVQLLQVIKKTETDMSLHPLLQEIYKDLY
Sequence of Peroxisome proliferator-activated receptor gamma/Nuclear receptor coactivator 1 (Q15788 whole entry, further chain): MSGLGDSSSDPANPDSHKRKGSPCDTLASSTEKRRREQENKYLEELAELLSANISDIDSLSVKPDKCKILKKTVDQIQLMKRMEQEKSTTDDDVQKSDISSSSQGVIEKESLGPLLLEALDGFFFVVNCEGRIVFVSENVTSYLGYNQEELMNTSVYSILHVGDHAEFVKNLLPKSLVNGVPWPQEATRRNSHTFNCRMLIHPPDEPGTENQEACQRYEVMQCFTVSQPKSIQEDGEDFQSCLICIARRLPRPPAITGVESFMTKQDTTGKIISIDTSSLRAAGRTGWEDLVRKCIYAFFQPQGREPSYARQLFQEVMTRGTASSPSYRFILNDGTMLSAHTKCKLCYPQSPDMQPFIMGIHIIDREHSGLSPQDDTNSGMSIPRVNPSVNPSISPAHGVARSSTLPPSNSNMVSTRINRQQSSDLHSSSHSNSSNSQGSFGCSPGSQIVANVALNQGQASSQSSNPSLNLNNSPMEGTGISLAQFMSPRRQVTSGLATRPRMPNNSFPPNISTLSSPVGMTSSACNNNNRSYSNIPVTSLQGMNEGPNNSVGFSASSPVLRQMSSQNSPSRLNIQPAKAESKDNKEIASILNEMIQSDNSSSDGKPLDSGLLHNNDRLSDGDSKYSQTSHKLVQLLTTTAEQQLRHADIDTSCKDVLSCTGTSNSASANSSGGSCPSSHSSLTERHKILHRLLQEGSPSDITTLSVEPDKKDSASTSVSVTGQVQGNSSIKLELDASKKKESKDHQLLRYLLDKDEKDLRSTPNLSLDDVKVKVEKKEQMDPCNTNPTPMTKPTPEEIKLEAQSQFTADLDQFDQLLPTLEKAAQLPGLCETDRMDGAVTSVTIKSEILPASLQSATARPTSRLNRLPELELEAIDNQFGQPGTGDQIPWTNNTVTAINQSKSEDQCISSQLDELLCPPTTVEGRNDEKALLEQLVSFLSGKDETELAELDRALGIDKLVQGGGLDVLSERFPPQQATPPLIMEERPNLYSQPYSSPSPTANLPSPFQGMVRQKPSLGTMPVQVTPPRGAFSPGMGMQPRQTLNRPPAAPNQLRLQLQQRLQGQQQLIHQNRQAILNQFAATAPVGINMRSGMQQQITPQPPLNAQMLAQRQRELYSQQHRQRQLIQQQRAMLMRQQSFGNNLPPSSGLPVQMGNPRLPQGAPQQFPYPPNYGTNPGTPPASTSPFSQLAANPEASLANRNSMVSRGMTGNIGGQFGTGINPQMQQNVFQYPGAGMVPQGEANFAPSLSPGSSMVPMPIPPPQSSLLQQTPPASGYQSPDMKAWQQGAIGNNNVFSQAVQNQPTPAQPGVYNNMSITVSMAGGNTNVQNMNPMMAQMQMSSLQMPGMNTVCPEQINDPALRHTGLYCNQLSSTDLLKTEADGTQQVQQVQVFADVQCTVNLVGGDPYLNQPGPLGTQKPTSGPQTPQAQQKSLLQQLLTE
Sequence of Peroxisome proliferator-activated receptor gamma/Nuclear receptor coactivator 3 (P37231 whole entry): as the sequence (P37231 whole entry) above
Sequence of Peroxisome proliferator-activated receptor gamma/Nuclear receptor coactivator 3 (Q9Y6Q9 whole entry, further chain): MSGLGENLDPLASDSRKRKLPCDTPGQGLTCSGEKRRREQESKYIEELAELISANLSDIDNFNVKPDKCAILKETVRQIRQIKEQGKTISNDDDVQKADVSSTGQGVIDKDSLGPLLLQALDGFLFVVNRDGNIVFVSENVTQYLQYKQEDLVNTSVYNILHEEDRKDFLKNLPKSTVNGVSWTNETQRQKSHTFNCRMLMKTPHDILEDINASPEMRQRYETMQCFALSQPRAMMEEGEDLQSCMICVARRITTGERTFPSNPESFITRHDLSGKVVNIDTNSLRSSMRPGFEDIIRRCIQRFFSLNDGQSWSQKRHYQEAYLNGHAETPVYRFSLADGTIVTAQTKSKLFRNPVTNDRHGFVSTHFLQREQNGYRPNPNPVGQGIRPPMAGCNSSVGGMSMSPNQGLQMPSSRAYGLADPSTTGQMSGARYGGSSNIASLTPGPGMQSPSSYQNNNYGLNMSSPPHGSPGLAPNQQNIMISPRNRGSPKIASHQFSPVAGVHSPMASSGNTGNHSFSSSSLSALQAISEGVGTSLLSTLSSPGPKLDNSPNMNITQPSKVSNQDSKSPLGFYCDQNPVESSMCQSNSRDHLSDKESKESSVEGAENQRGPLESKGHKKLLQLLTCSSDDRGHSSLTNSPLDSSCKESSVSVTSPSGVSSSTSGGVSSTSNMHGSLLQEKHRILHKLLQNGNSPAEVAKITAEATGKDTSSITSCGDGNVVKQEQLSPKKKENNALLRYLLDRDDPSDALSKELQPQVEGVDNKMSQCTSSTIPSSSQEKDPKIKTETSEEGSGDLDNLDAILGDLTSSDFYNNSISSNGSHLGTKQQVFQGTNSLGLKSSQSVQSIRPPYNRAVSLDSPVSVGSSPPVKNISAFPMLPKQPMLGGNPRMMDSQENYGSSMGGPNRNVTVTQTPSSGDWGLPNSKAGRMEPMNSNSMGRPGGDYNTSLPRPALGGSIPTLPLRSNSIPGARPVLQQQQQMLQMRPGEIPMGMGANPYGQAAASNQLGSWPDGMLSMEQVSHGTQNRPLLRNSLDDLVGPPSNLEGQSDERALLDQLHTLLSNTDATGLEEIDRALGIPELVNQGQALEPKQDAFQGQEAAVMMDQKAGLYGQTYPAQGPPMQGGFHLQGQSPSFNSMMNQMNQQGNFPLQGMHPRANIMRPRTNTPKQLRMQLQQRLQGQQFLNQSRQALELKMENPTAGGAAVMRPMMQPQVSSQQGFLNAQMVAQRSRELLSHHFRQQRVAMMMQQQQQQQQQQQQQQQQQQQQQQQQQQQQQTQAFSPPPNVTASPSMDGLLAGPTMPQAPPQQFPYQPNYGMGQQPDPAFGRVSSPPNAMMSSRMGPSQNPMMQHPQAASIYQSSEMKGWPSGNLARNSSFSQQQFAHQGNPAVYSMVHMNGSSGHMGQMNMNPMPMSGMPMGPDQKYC
Sequence of Large T antigen (P03070 whole entry): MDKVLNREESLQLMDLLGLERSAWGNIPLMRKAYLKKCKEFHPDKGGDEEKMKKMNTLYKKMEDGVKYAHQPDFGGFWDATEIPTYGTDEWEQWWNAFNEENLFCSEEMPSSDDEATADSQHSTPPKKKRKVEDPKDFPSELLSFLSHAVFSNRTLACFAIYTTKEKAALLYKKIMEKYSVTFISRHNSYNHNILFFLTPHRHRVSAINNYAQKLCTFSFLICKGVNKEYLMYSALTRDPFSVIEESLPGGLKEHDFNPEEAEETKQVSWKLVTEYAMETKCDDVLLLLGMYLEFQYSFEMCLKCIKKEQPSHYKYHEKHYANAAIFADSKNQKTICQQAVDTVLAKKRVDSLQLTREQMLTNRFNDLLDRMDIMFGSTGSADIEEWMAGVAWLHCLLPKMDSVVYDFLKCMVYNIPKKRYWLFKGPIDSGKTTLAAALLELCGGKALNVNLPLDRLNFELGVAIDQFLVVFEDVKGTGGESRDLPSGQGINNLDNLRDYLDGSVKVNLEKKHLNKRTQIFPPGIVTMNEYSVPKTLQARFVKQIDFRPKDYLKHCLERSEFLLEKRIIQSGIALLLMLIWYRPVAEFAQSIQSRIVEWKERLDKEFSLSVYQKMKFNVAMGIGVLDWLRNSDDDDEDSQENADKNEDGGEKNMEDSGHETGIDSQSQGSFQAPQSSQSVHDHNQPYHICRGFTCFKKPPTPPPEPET

SMILES: COCc1c(C(=O)OCc2nc(N)nc(Nc3ccccc3C)n2)oc2ccccc12
- IC50 (Coagulation factor XII): > 50 µM (inactive)

SMILES: COc1ccccc1N1CCN(CC(C)N(C(=O)C2CCCCC2)c2ccccn2)CC1 (stereo unspecified)
- EC50 [1]: 0.335 µM (active)

SMILES: COc1cc(CNC2CCCC2)c(Br)cc1OCc1ccccc1
- EC50 [1]: 0.237 µM (active)

SMILES: Oc1ccc2c(c1)oc1cc(O)ccc12
- AC50 [2]: 0.754 µM (active)
- IC50 (Large T antigen): 3.5 µM (active)

SMILES: COc1ccc(-c2cc(C(=O)c3c(N)n(C)c(=O)n(C)c3=O)c3ccccc3n2)cc1OC
- IC50 (Coagulation factor XII): > 50 µM (inactive)

SMILES: CCOC(=O)C1CCCN(CC(=O)Nc2c(C(=O)OC)[nH]c3ccc(Br)cc23)C1 (stereo unspecified)
- EC50 [3]: > 26.5 µM (not active)
- EC50 [4]: > 79.4 µM (not active)
- EC50 [5]: > 79.4 µM (inactive)

SMILES: O=C(NNc1nc(-c2ccc(Cl)cc2)cs1)c1ccco1
- AC50 [6]: 87.8 µM (active)
- AC50 [7]: 1.8 µM (active)

SMILES: CC1=C(C(=O)Nc2ccccc2)C(c2ccco2)C(C#N)=C(SCc2ccccc2)N1 (stereo unspecified)
- AC50 [6]: 28.4 µM (active)
- AC50 [7]: 17.5 µM (active)

SMILES: Cc1cc(-c2csc3ncnc(N4CCN(C)CC4)c23)cc(C)c1C
- EC50 [1]: 1.19 µM (active)

SMILES: CC(Sc1nnc(-c2ccc(Cl)cc2Cl)n1Cc1ccccc1)C(=O)Nc1nccs1 (stereo unspecified)
- EC50 [3]: > 79.4 µM (not active)
- EC50 [4]: 17.6 µM (not active)
- EC50 [5]: 10.6 µM (inactive)

SMILES: CCn1c(SCC(=O)N2CCN(c3ccccc3)CC2)nnc1-c1cc2cc(Cl)ccc2o1
- IC50 (Coagulation factor XII): > 50 µM (inactive)
- EC50 [8]: > 50 µM (not active)

SMILES: O=C(Nc1nc2c(s1)CN(Cc1ccccc1)CC2)c1cccc(S(=O)(=O)N2CCc3ccccc32)c1
- EC50 [3]: 14.8 µM (not active)
- EC50 [4]: 28 µM (not active)
- EC50 [5]: 10.8 µM (inactive)

SMILES: c1ccc(-c2nnsc2-c2nc3ccccc3[nH]2)cc1
- EC50 [3]: 10.3 µM (not active)
- EC50 [4]: 83.6 µM (not active)
- EC50 [5]: 10.8 µM (inactive)

SMILES: COc1ccc(N(CC(=O)Nc2ccccc2SC)S(C)(=O)=O)cc1OC
- IC50 (Coagulation factor XII): > 50 µM (inactive)

SMILES: CN(c1ccccc1)S(=O)(=O)c1cc(C(=O)Nc2nc3ccccc3[nH]2)ccc1Cl
- EC50 (HEK293 [9]): 8.46 µM (active)
- IC50 (HEK293 [10]): > 20 µM (inactive)
- IC50 (HEK293 [11]): 6.72 µM (active)
- IC50 (HEK293 [12]): 5.37 µM (active)

SMILES: O=C(NCCCn1ccnc1)c1ccc(N2CCCCCC2)c([N+](=O)[O-])c1
- EC50 (BJ [13]): > 150 µM (not active)
- AC50 (INS1): 6.67 µM (active)
- EC50 (BJ [14]): 11.4 µM (active)
- EC50 (BJ [15]): 3.55 µM (active)
- EC50 (BJ [16]): 7.97 µM (active)
- EC50 [17]: 25.6 µM (active)

SMILES: O=C(O)c1ccc(CSc2nc(-c3ccc(Cl)cc3)cc(C(F)(F)F)n2)cc1
- EC50 (Streptococcus): 11.7 µM (active)
- EC50 [1]: 5.96 µM (active)
- EC50 [18]: 4.41 µM (active)
- EC50 (Streptokinase A): > 150 µM (not active)
- AC50 [7]: 5.76 µM (active)

Source: ChEMBL document CHEMBL1201862, “PubChem BioAssay data set” (2004)
